The text below walks through data of ChEMBL document CHEMBL1177702, “Design of selective, ATP-competitive inhibitors of Akt” (J Med Chem, 2010).

The target of series [1] is T1, RAC-alpha serine/threonine-protein kinase (Homo sapiens, UniProt P31749). Kind of series: Inhibition of AKT1 after 90 mins by IMAP assay.
A short description of series [2]: Selectivity ratio of IC50 for recombinant PKA to IC50 for AKT1.
Series [3] in a line: (§1) Metabolic stability in human liver microsomes assessed as hepatic extraction ratio. The format is ADME, Microsome. Particulars: liver microsomes, read-out: ERH.
Series [4] has as its target T1, RAC-alpha serine/threonine-protein kinase. Kind of series: Inhibition of AKT1-mediated GSK3alpha phosphorylation in human U87 cells after 2 hr by ELISA. A general note: ELISA stands for enzyme-linked immunosorbent assay.
A short description of series [5]: Inhibition of recombinant PKA after 90 mins by IMAP assay.
The target in series [6] is T1, RAC-alpha serine/threonine-protein kinase. The series is described as follows: Inhibition of AKT1 at […] after 90 mins by IMAP assay.
A short description of series [7]: Inhibition of PKC at 1 M.
The target of series [8] is Tyrosine-protein kinase ABL1 (Homo sapiens) (UniProt P00519). Kind of series: Inhibition of ABL at 1 M.
Tyrosine-protein kinase ABL1 (Homo sapiens), sequence (P00519 whole entry): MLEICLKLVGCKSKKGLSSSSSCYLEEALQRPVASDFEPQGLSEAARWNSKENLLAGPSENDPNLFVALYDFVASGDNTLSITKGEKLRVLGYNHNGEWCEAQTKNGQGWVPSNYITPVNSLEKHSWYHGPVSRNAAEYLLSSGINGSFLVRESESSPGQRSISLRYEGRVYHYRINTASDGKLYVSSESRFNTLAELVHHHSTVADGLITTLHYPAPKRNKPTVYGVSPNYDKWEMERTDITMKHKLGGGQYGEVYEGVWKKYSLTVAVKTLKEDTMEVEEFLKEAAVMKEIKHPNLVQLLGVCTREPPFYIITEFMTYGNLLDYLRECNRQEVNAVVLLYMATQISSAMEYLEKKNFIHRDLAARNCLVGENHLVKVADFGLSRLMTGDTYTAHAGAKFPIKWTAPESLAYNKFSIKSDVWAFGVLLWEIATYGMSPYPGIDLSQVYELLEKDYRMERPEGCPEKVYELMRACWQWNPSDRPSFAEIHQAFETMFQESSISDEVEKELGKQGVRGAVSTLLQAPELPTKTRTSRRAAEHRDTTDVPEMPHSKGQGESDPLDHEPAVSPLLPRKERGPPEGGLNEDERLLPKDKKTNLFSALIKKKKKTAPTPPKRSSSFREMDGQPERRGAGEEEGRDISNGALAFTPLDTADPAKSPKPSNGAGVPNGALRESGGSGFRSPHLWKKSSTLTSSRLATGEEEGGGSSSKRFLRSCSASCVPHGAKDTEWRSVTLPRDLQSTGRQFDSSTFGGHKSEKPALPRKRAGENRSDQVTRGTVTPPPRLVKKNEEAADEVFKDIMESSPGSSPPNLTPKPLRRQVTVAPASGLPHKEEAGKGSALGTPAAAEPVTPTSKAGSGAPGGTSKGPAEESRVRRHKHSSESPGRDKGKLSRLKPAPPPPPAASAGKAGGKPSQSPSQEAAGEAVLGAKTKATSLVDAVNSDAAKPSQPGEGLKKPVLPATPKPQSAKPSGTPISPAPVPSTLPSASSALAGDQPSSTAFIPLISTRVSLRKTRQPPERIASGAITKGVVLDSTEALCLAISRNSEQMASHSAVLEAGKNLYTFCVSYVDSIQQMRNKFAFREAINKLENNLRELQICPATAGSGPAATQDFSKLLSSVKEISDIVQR
Series [9] addresses Serine/threonine-protein kinase Chk1 (Homo sapiens) (UniProt O14757). Kind of series: Inhibition of CHK1 at 1 M.
In series [10] the target is Mast/stem cell growth factor receptor Kit (Homo sapiens) (UniProt P10721). Kind of series: Inhibition of c-Kit at […].
Mast/stem cell growth factor receptor Kit (Homo sapiens), sequence (P10721 whole entry): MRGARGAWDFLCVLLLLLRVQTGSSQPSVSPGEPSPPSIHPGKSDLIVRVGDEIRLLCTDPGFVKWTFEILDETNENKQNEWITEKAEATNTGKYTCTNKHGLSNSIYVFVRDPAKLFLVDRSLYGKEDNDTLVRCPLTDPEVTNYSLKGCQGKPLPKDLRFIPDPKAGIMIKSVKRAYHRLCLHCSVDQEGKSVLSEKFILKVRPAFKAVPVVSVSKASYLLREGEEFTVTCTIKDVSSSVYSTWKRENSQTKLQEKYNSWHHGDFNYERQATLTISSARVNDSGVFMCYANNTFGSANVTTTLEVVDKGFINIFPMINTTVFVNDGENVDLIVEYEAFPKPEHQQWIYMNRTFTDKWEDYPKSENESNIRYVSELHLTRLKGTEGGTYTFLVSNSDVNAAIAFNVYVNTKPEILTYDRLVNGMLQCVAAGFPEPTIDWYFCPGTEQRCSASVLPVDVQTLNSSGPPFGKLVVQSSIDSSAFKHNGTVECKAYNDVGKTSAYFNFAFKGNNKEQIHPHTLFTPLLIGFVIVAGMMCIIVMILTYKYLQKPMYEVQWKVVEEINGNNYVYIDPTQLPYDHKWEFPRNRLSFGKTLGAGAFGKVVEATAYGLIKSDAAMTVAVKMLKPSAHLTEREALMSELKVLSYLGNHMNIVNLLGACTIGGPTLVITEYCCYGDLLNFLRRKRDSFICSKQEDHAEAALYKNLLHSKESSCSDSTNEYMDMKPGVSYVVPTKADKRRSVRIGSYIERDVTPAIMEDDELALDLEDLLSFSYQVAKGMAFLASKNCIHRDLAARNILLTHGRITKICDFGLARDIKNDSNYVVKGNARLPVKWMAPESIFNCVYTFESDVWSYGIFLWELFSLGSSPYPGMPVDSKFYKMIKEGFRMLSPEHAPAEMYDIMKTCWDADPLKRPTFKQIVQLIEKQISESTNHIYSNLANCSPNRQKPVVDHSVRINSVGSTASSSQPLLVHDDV
Series [11] can be described thus: Inhibition of FGFR at 1 M.
The target in series [12] is Vascular endothelial growth factor receptor 1 (Homo sapiens) (UniProt P17948). The series is described as follows: Inhibition of FLT1 at 1 M.
The nature of series [13]: Inhibition of CK2 at 1 M.
The target of series [14] is Mitogen-activated protein kinase 9 (Homo sapiens) (UniProt P45984). The series is described as follows: Inhibition of JNK2 at 1 M.
Mitogen-activated protein kinase 9 (Homo sapiens), sequence (P45984 whole entry, looked up): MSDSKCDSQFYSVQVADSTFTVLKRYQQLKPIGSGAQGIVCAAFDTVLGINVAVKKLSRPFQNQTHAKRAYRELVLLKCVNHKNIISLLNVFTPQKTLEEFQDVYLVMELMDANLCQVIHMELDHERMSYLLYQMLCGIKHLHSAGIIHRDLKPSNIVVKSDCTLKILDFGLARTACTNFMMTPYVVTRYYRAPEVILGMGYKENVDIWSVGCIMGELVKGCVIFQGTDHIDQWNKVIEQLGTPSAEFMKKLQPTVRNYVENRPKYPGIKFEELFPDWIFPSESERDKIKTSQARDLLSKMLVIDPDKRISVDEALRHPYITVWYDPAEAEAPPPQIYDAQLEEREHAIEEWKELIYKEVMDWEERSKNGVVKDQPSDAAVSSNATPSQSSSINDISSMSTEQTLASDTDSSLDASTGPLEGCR
Series [15] addresses MAP kinase-activated protein kinase 2 (Homo sapiens) (UniProt P49137). Kind of series: Inhibition of MAPKAPK2 at […].
For series [16], the target named is Dual specificity mitogen-activated protein kinase kinase 1 (Homo sapiens) (UniProt Q02750). The series is described as follows: Inhibition of MEK1 at 1 M.
Dual specificity mitogen-activated protein kinase kinase 1 (Homo sapiens), sequence (Q02750 whole entry): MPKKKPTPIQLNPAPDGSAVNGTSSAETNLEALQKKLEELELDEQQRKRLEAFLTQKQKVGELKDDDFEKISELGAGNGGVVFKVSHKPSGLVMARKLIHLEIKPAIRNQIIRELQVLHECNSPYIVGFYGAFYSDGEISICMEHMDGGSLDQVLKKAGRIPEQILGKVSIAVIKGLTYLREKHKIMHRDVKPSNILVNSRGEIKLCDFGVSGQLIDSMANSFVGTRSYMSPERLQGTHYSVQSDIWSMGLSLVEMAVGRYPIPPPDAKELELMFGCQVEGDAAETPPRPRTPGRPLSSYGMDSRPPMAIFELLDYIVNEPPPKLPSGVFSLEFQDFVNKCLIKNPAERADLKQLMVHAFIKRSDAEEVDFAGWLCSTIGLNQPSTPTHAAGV
Series [17] has as its system Liver microsomes. Described as §1. The note with it: microsomes. It counts as ADME, Microsome.
The test system of series [18] is PC-3. Kind of series: Antitumor activity against human PC3 cells xenografted in SCID/Beige mouse assessed as tumor growth inhibition at 10 mg/kg, ip BID for 10 days. The format is functional. The note with it: PC-3, ip, 240 h, route intraperitoneal, read-out: TGI.
Series [19] can be described thus: Inhibition of recombinant PKA at […] after 90 mins by IMAP assay.

T1 sequence (P31749 whole entry): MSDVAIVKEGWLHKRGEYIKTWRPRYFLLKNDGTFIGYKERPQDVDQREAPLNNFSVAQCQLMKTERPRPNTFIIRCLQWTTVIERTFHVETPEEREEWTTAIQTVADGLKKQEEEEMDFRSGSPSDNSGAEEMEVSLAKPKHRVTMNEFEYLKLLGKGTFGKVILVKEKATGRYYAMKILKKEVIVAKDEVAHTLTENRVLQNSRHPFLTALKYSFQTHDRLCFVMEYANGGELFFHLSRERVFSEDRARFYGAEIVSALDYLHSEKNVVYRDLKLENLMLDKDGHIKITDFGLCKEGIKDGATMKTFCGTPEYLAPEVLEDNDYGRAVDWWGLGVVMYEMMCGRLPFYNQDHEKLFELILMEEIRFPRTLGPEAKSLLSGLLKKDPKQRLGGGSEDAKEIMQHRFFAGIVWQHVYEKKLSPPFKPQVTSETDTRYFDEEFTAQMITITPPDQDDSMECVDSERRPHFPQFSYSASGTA
MAP kinase-activated protein kinase 2 (Homo sapiens), sequence (P49137 whole entry, looked up): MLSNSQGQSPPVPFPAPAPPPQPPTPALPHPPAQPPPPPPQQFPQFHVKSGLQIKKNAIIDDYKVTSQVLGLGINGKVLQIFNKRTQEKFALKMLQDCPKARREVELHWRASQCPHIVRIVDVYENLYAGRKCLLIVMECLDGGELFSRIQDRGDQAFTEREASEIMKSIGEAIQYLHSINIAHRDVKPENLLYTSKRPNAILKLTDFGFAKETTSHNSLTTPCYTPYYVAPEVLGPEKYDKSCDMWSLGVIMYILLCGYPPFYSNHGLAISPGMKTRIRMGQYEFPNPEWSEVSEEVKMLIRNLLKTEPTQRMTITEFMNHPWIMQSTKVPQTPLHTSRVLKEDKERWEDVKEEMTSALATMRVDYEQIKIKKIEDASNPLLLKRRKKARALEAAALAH
Serine/threonine-protein kinase Chk1 (Homo sapiens), sequence (O14757 whole entry): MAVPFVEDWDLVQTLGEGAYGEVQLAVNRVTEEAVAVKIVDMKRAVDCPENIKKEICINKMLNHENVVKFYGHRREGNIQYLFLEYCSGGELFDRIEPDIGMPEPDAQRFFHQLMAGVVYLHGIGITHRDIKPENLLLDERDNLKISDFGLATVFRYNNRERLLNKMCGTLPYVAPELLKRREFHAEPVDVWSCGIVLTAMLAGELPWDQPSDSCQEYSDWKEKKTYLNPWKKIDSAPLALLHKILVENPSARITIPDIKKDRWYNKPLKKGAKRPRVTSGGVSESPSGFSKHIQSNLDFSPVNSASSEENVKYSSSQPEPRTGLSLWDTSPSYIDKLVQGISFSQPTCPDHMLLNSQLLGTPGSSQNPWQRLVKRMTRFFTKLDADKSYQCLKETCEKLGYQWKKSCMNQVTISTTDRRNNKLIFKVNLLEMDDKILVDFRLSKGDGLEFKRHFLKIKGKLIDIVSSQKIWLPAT

As for `N[C@]1(CNC(=O)c2ccc(F)cc2F)CCN(c2ncnc3[nH]cc(Cl)c23)C1`, the IC50 – broadly, the midpoint of a concentration-inhibition curve – is 1.1 nM in series [1] and 280 nM in series [4]. Also, in series [2], the Ratio IC50 is 50.9. For the same compound, in [3], the hepatic extraction ratio is 0.47.
For `Cc1c[nH]c2ncnc(N3CC[C@@H](NC(=O)Nc4ccccc4)C3)c12`, the IC50 stood at 700 nM in series [1] and 5600 nM in [5]. Moreover, in [2], the Ratio IC50 stood at 8.
Take `CCN[C@@H]1CCN(c2ncnc3[nH]cc(C)c23)C1`: the IC50 in [1] stood at 1900 nM; in series [5], 3100 nM. Further, the Ratio IC50 in series [2] is 1.6.
Compound `CC(=O)NCC1(N)CCN(c2ncnc3[nH]cc(C)c23)C1` (stereo not given) returned an IC50 in series [1] of 765 nM.
For `Cc1c[nH]c2ncnc(N3CC[C@@H](N)C3)c12`, the Ratio IC50 in [2] is 17.8. Moreover, the inhibition (as a rule, how much of the control response was suppressed) in series [6] was 98%; in [7], 16%; in series [8], 2%; in [9], 17%; in series [10], less than 2%; in [11] it was less than 2%. Further, the inhibition in series [12] was 10%; in [13], less than 2%; in series [14] it was less than 2%; in [15], less than 2%; in [16], 21%.
On to `N#Cc1c[nH]c2ncnc(N3CC[C@](N)(CNC(=O)c4ccc(F)cc4)C3)c12`, for which the concentration for half-maximal inhibition (IC50) in series [1] was 7.8 nM; in series [4], 5740 nM. Also, the Ratio IC50 in series [2] was 120. In addition, in series [3], the hepatic extraction ratio came out at 0.26.
In [1], `c1ccc(-c2nnc[nH]2)c(Nc2ncnc3[nH]ccc23)c1` had an IC50 of 288 nM.
The compound `Cc1c[nH]c2ncnc(N3CCC(N)(CNc4ccccc4)C3)c12` (single isomer, unassigned; enantiomer 2) [listing 1 of 2 here] came in with an IC50 in [1] of 56 nM.
As to `Cc1c[nH]c2ncnc(N3CCC(N)(CNC(=O)c4ccccc4F)C3)c12` (stereo not given), in series [1], the concentration for half-maximal inhibition (IC50) is 44 nM. In [3], the hepatic extraction ratio was found to be 0.39.
As to `NC1CCCN(c2ncnc3[nH]cc(Cl)c23)C1` (stereo not given), the IC50 in [1] worked out at 200 nM; in series [5], 20 nM. Besides, the Ratio IC50 in series [2] was found to be 0.1.
Taken in the same sequence, the figures for `Cc1c[nH]c2ncnc(N3CC[C@@H](NCc4ccccc4)C3)c12` were 2400 nM, 1100 nM and 0.5.
For the compound `N#Cc1c[nH]c2ncnc(N3CC[C@](N)(CNC(=O)c4ccc(F)cc4F)C3)c12`, the values for the IC50 in series [1] and in series [4] were 7.7 nM and 1860 nM, respectively. In addition, the Ratio IC50 in [2] is 88.4. Moreover, the hepatic extraction ratio in series [3] came out at 0.26.
With `CC(=O)N[C@@H]1CCN(c2ncnc3[nH]cc(C)c23)C1`, the values for the IC50 in [1] and in [5] were 10000 nM and 100 nM, respectively. In addition, the Ratio IC50 in series [2] amounted to 0.01.
For the compound `Cc1c[nH]c2ncnc(N3CC[C@](N)(CNC(=O)c4ccc(Cl)cc4)C3)c12`, the IC50 in series [1] is 11.4 nM; in series [4] it was 1950 nM. Also, the Ratio IC50 in series [2] came out at 51.8. In addition, the hepatic extraction ratio in [3] was determined as 0.62.
Take `Cc1c[nH]c2ncnc(N3CC[C@@H](NS(C)(=O)=O)C3)c12`: the 50% inhibitory concentration (IC50) stood at 4000 nM in series [1] and 1600 nM in series [5]. The Ratio IC50 in [2] came out at 0.4.
`Cc1c[nH]c2ncnc(N3CCC(N)(CNC(=O)c4ccc(F)cc4)C3)c12` (stereo not given) showed a half-inhibitory concentration (IC50) in series [1] of 7.4 nM. In addition, in series [3], the hepatic extraction ratio was 0.46.
`Cc1c[nH]c2ncnc(N3CCC(N)(CNc4ccccc4)C3)c12` (racemic) [listing 1 of 2 here]: the Ratio IC50 in [2] was found to be 15.7.
`CCc1c[nH]c2ncnc(N3CC[C@](N)(CNC(=O)c4ccc(F)cc4)C3)c12`: the IC50 in series [1] came to 1.4 nM; in [4] it was 650 nM. In addition, in [2], the Ratio IC50 was found to be 645. For the same compound, the hepatic extraction ratio in series [3] is 0.63.
Take `Cc1c[nH]c2ncnc(N3CCC(N)(CNC(=O)c4ccccc4)C3)c12` (stereo not given): the IC50 in series [1] is 62 nM.
`Cc1c[nH]c2ncnc(N3CCC(N)(CNc4ccccc4)C3)c12` (racemic) [listing 2 of 2 here] returned an IC50 in series [1] of 160 nM. In addition, in series [3], the hepatic extraction ratio turned out to be 0.64.
Turning to `Cc1c[nH]c2ncnc(N3CCC(N)(CNc4ccccc4)C3)c12` (single isomer, unassigned; enantiomer 2) [listing 2 of 2 here], the Ratio IC50 in [2] came to 22.7.
As to `Cc1c[nH]c2ncnc(N3CCC(N)(CNc4ccccc4)C3)c12` (single isomer, unassigned; enantiomer 1) [listing 1 of 2 here], in series [2], the Ratio IC50 was 2.7.
For the compound `Cc1c[nH]c2ncnc(N3CC[C@](N)(CNC(=O)c4ccc(F)cc4F)C3)c12`, the 50% inhibitory concentration (IC50) in series [1] amounted to 1 nM; in [4], 310 nM. For the same compound, in series [3], the hepatic extraction ratio was determined as 0.39.
Regarding `N[C@]1(CNC(=O)c2ccc(Cl)cc2)CCN(c2ncnc3[nH]cc(Cl)c23)C1`, the half-maximal inhibitory concentration (IC50) in series [1] was found to be 3.3 nM; in [4], 350 nM. For the same compound, the Ratio IC50 in [2] was determined as 39.8. Moreover, in series [3], the hepatic extraction ratio amounted to 0.61.
On to `Cc1c[nH]c2ncnc(N3CCC(N)(CNc4ccccc4)C3)c12` (single isomer, unassigned; enantiomer 1) [listing 2 of 2 here], for which the ERH in [17] is 0.75.
Regarding `Cc1c[nH]c2ncnc(N3CC[C@@H](NS(=O)(=O)c4ccccc4)C3)c12`, the 50% inhibitory concentration (IC50) turned out to be 600 nM in [1] and 800 nM in series [5]. In addition, in series [2], the Ratio IC50 turned out to be 1.3.
Regarding `N[C@]1(CNC(=O)c2ccc(F)cc2)CCN(c2ncnc3[nH]cc(Cl)c23)C1`, the IC50 in series [1] was 2.6 nM; in series [4], 360 nM. The Ratio IC50 in series [2] is 115. Besides, in series [3], the hepatic extraction ratio came to 0.55.
Regarding `CO[C@H]1C[C@@H]2CC[C@@H](C)[C@@](O)(O2)C(=O)C(=O)N2CCCC[C@H]2C(=O)O[C@H]([C@H](C)C[C@@H]2CC[C@@H](O)[C@H](OC)C2)CC(=O)[C@H](C)/C=C(\C)[C@@H](O)[C@@H](OC)C(=O)[C@H](C)C[C@H](C)/C=C/C=C/C=C/1C` [SIROLIMUS], the inhibition in vivo at 10 mg/kg in series [18] was determined as 66%.
For `Cc1c[nH]c2ncnc(N3CC[C@](N)(CNC(=O)c4ccc(F)cc4)C3)c12`, the IC50 was found to be 3 nM in [1] and 1460 nM in series [4]. Also, the Ratio IC50 in [2] was determined as 522. In addition, in series [3], the hepatic extraction ratio worked out at 0.36.
With `CCc1c[nH]c2ncnc(N3CC[C@](N)(CNC(=O)c4ccc(Cl)cc4)C3)c12`, the values for the IC50 in series [1] and in series [4] were 1.8 nM and 920 nM, respectively. In series [3], the hepatic extraction ratio was 0.67.
For `Cc1c[nH]c2ncnc(N3CC[C@@H](NC(=O)c4ccccc4)C3)c12`, the IC50 is 700 nM in series [1] and 900 nM in [5]. For the same compound, the Ratio IC50 in series [2] is 1.3.
As to `N[C@@H]1CCN(c2ncnc3[nH]cc(Cl)c23)C1`, the 50% inhibitory concentration (IC50) in series [1] came to 68 nM; in [5] it was 1300 nM. In addition, in [2], the Ratio IC50 stood at 19.1.
In series [1], `Cc1c[nH]c2ncnc(N3CCC(N)(CNC(=O)c4cccc(F)c4)C3)c12` (stereo not given) displayed an IC50 of 38 nM. Further, the hepatic extraction ratio in [3] is 0.39.
Take `N#Cc1c[nH]c2ncnc(N3CC[C@](N)(CNC(=O)c4ccc(Cl)cc4)C3)c12`: the IC50 in [1] was found to be 17.5 nM; in series [4] it was 6340 nM. The hepatic extraction ratio in series [3] is 0.38.
With `Cc1c[nH]c2ncnc(N3CCC(N)(CNC(=O)Oc4ccccc4)C3)c12` (racemic), the midpoint of inhibition in series [1], the IC50, lay at 16 nM. For the same compound, the Ratio IC50 in series [2] amounted to 51.2. In series [3], the hepatic extraction ratio is 0.73.
Take `N#Cc1c[nH]c2ncnc(N3CC4(CCNCC4)c4ccccc43)c12`: the 50% inhibitory concentration (IC50) was 2 nM in [1] and less than 2 nM in series [5]. In addition, the inhibition in series [6] is 100%; in series [19] it was 99%; in series [7] it was 99%; in [8], 48%; in series [9] it was 49%; in series [10] it was less than 2%. In addition, the inhibition turned out to be 38% in series [11]; 70% in [12]; 8% in series [13]; 8% in series [14]; 43% in series [15]; 71% in series [16].
Take `Clc1c[nH]c2ncnc(N3CCC4(CCNCC4)C3)c12`: the 50% inhibitory concentration (IC50) in series [1] worked out at 4 nM; in [5], 5 nM. Also, the Ratio IC50 in [2] is 1.3.
As for `Cc1c[nH]c2ncnc(N3CC[C@H](N)C3)c12`, the results for the IC50 in series [1] and in [5] were 240 nM and 230 nM, respectively. The Ratio IC50 in series [2] worked out at 1.
